Measurements as given in patent US6956034B2, “Oxazin(ethyl)one compounds used as fungicides” (BASF Aktiengesellschaft, priority 2001, dated 2005).

Experiments:
[1] = tested on: mildew of cucumbers (Sphaerotheca fuliginea); test: Protective activity against mildew of cucumbers; assay type: in vivo; details: cucumber seedlings, sprayed 20 h before inoculation, 7 days, untreated 90
Protocol: The active compounds were used as aqueous preparations of active compounds which contained the active compound in a concentration of 250 ppm, 63 ppm, 16 ppm and 4 ppm, respectively. The aqueous preparation of active compound was prepared by diluting a stock solution of 10% by weight of active compound, 63% by weight of cyclohexanone and 27% by weight of emulsifier (20 parts by weight of Nekanil® LN (Lutensol® AP6, wetting agent having emulsifying and dispersing action based on ethoxylated alkylphenols) and 10 parts by weight of Wettol® EM (nonionic emulsifier based on ethoxylated castor oil)) with water in the amount required for the desired concentration.
Leaves of cucumber seedlings of the cultivar “Chinesische Schlange” which had been grown in pots were, at the cotyledon stage, sprayed to runoff point with an aqueous preparation of active compound. 20 hours after the spray coating had dried on, the plants were inoculated with an aqueous spore suspension of mildew of cucumbers (Sphaerotheca fuliginea). The plants were then cultivated in a greenhouse at 20-24° C. and 60-80% relative atmospheric humidity for 7 days. The extent of the mildew development was then determined visually in % infection of the cotyledon area.

[2] = tested on: mildew of wheat (Erysiphe [syn. Blumeria] graminis forma specialis tritici); test: Protective activity against mildew of wheat; assay type: in vivo; details: wheat seedlings, sprayed 24 h before inoculation, 7 days, untreated 85
Protocol: The active compounds were used as aqueous preparations of active compounds which contained the active compound in a concentration of 250 ppm, 63 ppm, 16 ppm and 4 ppm, respectively. The aqueous preparation of active compound was prepared by diluting a stock solution of 10% by weight of active compound, 63% by weight of cyclohexanone and 27% by weight of emulsifier (20 parts by weight of Nekanil® LN (Lutensol® AP6, wetting agent having emulsifying and dispersing action based on ethoxylated alkylphenols) and 10 parts by weight of Wettol® EM (nonionic emulsifier based on ethoxylated castor oil)) with water in the amount required for the desired concentration. The first fully developed leaves of the wheat seedlings of the variety “Kanzler” which had been grown in pots were sprayed to runoff point with an aqueous preparation of active compound prepared from a stock solution containing 10% of active compound, […]. 24 hours after the spray coating had dried on, the plants were inoculated with an aqueous spore suspension of mildew of wheat (Erysiphe [syn. Blumeria] graminis forma specialis. tritici). The plants were then cultivated in a greenhouse at 20-24° C. and 60-90% relative atmospheric humidity. After 7 days the extent of the mildew development was determined visually in % infection of the leaves.

Measured: percentage of infection of leaves at the prescribed concentration of active compound

CCCCn1c(=NOCC2CC2)oc2ccc(I)cc2c1=O [I - A1.136]
0%: [1]; 16 ppm | [1]; 63 ppm | [1]; 250 ppm | [2]; 16 ppm | [2]; 63 ppm | [2]; 250 ppm

CCCn1c(=NOCC2CC2)oc2ccc(I)cc2c1=O [I - A1.137]
0%: [1]; 16 ppm | [1]; 63 ppm | [1]; 250 ppm | [2]; 16 ppm | [2]; 63 ppm | [2]; 250 ppm

CCCCn1c(=NOC(C)C)oc2ccc(I)cc2c1=O [I - A1.138]
0%: [1]; 16 ppm | [1]; 63 ppm | [1]; 250 ppm | [2]; 16 ppm | [2]; 63 ppm | [2]; 250 ppm

CCCn1c(=NOC(C)C)oc2ccc(I)cc2c1=O [I - A1.139]
0%: [1]; 16 ppm | [1]; 63 ppm | [1]; 250 ppm | [2]; 16 ppm | [2]; 63 ppm | [2]; 250 ppm
